Measured values taken from patent publication US11555055B2, “Peptide inhibitors of insulin-degrading enzyme” (The Regents of the University of California, priority 2017, dated 2023).
Entries after “also recorded” stand apart in the source; their conditions may differ. Where a SMILES comes first, the peptide text is derived from it. Bridges are numbered along the chain shown (N, C = ends).

Key:
IDE = target: T1, IDE (Homo sapiens, UniProt P14735); assay: IDE protease activity assay with FRET1 substrate; assay type: biochemical; conditions: Ki converted from IC50 with the Cheng-Prusoff equation
T1 construct: made in house; host or cells: bacteria
T1 sequence (P14735 1-1019): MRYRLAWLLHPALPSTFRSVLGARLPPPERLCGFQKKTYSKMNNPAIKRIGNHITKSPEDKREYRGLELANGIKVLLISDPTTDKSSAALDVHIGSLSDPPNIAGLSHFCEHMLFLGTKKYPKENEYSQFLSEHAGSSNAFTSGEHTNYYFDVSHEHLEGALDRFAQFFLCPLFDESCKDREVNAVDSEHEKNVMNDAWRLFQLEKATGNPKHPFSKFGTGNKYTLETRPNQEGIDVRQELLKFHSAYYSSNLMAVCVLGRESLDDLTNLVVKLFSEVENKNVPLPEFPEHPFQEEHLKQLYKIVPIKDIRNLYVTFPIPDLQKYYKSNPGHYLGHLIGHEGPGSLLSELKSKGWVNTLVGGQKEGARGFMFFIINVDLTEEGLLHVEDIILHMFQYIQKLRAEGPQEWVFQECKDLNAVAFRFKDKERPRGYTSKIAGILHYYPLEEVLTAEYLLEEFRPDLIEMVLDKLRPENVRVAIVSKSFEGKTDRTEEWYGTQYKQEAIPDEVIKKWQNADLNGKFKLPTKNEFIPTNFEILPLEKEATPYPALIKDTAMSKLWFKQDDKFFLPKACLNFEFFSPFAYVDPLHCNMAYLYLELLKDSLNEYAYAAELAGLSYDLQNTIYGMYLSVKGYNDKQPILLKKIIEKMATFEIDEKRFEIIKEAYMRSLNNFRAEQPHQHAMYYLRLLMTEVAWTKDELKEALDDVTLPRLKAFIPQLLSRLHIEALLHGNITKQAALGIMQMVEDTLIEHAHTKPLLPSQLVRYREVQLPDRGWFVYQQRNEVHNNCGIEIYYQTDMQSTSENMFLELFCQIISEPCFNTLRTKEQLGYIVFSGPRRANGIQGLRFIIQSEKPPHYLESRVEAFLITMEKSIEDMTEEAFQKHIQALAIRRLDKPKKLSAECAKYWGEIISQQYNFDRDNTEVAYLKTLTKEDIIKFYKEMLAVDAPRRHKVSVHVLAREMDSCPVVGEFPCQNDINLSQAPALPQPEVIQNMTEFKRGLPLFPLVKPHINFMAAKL

[1] = system: primary murine skin fibroblasts; assay: Insulin degradation in cultured skin fibroblasts, insulin in medium by ELISA; assay type: cell-based, mouse; conditions: 100 μM P12-3A, 10 nM insulin, up to day 4, logarithmically growing cells
Experimental: (§1) FIG. 4A-F. Effects of P12-3A on cultured skin cells. A, Insulin concentrations as a function of time in logarithmically growing primary murine skin fibroblasts in the absence or presence of P12-3A (100 μM). […] Data are mean±SEM of 4 independent replications. *P<0.05, **P<0.01. B, Proliferation of cells in the absence or presence of P12-3A (100 μM). […] C,D,E, P12-3A (100 μM) potentiates insulin-induced collagen production in skin fibroblasts. Collagen production was assessed by COL1A1 mRNA levels (C), levels of hydroxyproline secreted into the medium (D), and cell-associated mature alpha-1 type I collagen levels detected by Western blotting (E). […] Migration of HaCaT cells 48 h after induction of a scratch wound in the presence of the indicated quantities of insulin and/or P12-3A (100 μM). […]
(§2) Insulin promotes wound healing and overall skin health by affecting a number of processes, including cell proliferation (2,3), cell migration (5,6), and the production and secretion of ECM components, particularly type I collagen (7-13). We therefore assessed the ability of P12-3A to influence these processes in cultured skin fibroblasts and keratinocytes. To that end, primary mouse skin fibroblasts were grown for 4 d in multiple concentrations of insulin in the presence or absence of P12-3A, and insulin concentration over time was monitored by ELISA. […]

HaCaT cells = assay: In vitro scratch wound assay, keratinocyte migration; assay type: cell-based; conditions: P12-3A 100 μM, 48 h after scratch wound, different concentrations of insulin
Experimental: as §1, §2

Ki (IDE): 10 ± 0.4 µM
SMILES: CC(C)C[C@H](NC(=O)[C@H](CO)NC(=O)[C@@H](N)CCC(N)=O)C(=O)N1CCC[C@H]1C(=O)N[C@@H](Cc1c[nH]c2ccccc12)C(=O)N[C@H]1CSSC[C@@H](C(=O)N[C@H](C(=O)N[C@H](C(N)=O)[C@@H](C)O)C(C)C)NC(=O)[C@H](Cc2c[nH]cn2)NC(=O)[C@@H]2CCCN2C(=O)[C@H](Cc2ccc(O)cc2)NC1=O [Peptide P12-3A] (H-QSLPWCYPHCVT-NH2; disulfide 6-10 (inferred))
insulin levels over time in cell culture [1]: remain constant
migration of keratinocytes (HaCaT cells): significantly increase; also recorded: potentiates the migration of keratinocytes
